Experimental data reported in patent publication US20050255537A1, “Method for monitoring treatment with a parathyroid hormone” (priority 1999, published 2005).

Experiments:
[1] = test system: postmenopausal women and osteoporotic men; experiment: Example 6 spine BMD treatment-response model and BCM response-indicator neural network (women and men); assay type: in vivo, human
From the text: Data from studies in Examples 1 and 5 above were further analyzed to develop more detailed models for the use of bone markers in monitoring and predicting effects of PTH on clinically significant correlates of efficacy in the treatment of osteoporosis, such as bone mineral density (BMD). Population pharmacodynamic (PD) models were developed for total lumbar spine BMD, and the following biochemical markers of bone formation and resportion: PICP, BSAP, NTX, and DPD. The final treatment-response model for total lumbar spine was used to calculate BMD values at 12 months of treatment for each patient, based on the individual's parameter estimates (empirical Bayesian estimate). These predicted BMD measurements were merged with the observed BCM values, at baseline, 1 month, and 3 months of treatment, for patients who completed at least 12 months of LY333334 treatment. A neural network was developed to characterize the relationship between BCM values at 1 and 3 months and response to treatment, as measured by change in total lumbar spine BMD.
The spine BMD placebo-response model characterized change in total lumbar spine BMD over time in osteoporotic patients taking calcium and vitamin D supplements. The BMD treatment-response model was used to characterize change in total lumbar spine BMD during the course of treatment and to identify patient factors influencing response to therapy. This model was also used to provide individual estimates of change in BMD at 12 months. The BCM treatment-response models characterized changes in PICP, BSAP, NTX, and DPD, during the course of treatment.
The individual estimates of change in spine BMD from the final treatment-response model were combined with observed BCM values to develop the response-indicator neural network. The neural network was used to evaluate change in the biochemical markers as early indicators of change in total lumbar spine BMD.
Change in total lumbar spine BMD at 12 months of treatment was calculated from the post-hoc BMD estimates for each patient from the final spine BMD treatment-response model. These BMD estimates were combined with observed BCM values at baseline, 1, and 3 months for all patients completing at least 12 months of LY333334 therapy.
Neural networks were used to evaluate the biochemical markers as potential indicators of bone mineral density response to LY333334 treatment. The relationship between change in biochemical marker values and change in spine BMD is complex and the appropriate model structure is unknown. The neural network approach was chosen to avoid the a priori assumption of a model form. A proprietary artificial neural network program developed at Eli Lilly and Company (described in Wikel J, Dow E, Heathman M. 1996. Interpretive Neural Networks for QSAR. Network Science [available on-line]) was used to evaluate the BCM values as predictors of change in spine BMD. Other back-propagation networks which are known in the art and commercially available also would provide similar results. The BCM values, as well as significant patient factors from the final spine BMD treatment-response model, were used as inputs to the neural network. The network was trained to predict change in total lumbar spine BMD.

[2] = test system: BSAP and PICP serum levels, NTX urine levels; experiment: Example 1 clinical trial of rhPTH(1-34) in postmenopausal women: markers of bone formation and resorption; assay type: in vivo, human
Procedure: • Number of Subjects: • rhPTH(1-34): 1093 enrolled, 848 finished. • Placebo: 544 enrolled, 447 finished. • Diagnosis and Inclusion Criteria: Women ages 30 to 85 years, postmenopausal for a minimum of 5 years, with a minimum of one moderate or two mild atraumatic vertebral fractures. • Dosage and Administration: • Test Product (blinded) • rhPTH(1-34): 20 μg/day, given subcutaneously • rhPTH(1-34): 40 μg/day, given subcutaneously • Reference Therapy (blinded) • Placebo study material for injection • Duration of Treatment: • rhPTH(1-34): 17-23 months (excluding 6-month run-in phase) • Placebo: 17-23 months (excluding 6-month run-in phase) • Criteria for Evaluation: Spine x-ray; serum biological markers (calcium, bone-specific alkaline phosphatase, procollagen I carboxy-terminal propeptide); urine markers (calcium, N-telopeptide, free deoxypyridinoline); 1,25-dihydroxyvitamin D; bone mineral density: spine, hip, wrist, and total body: height; population pharmacokinetics; bone biopsy (selected study sites).
Measures of BSAP, PICP, and NTX levels were determined for each patient through the course of therapy, for example, at 0, 1, 3, 6, 12, 21 and 24 months after the initiation of administration of parathyroid hormone. Parathyroid hormone treatment was discontinued after 17-23 months. The percent change (relative to the initial “0” month levels) for each marker was determined for each patient and is reported in the Figures. The overall changes observed in the 20 μg/day PTH-treated patient population, the 40 μg/day PTH-treated treated patient population, and the placebo patient population were determined by methods known to those of skill in the arts.

[3] = Female Patients, BSAP at 3 Months 10-14.99 pM
[4] = Female Patients, BSAP at 3 Months 15-19.99 pM
[5] = Female Patients, BSAP at 3 Months <10 pM
[6] = Female Patients, BSAP at 3 Months ≧20 pM
[7] = Females, change in PICP at 1 month 50-99 pM, baseline PICP <100 pM
[8] = Females, change in PICP at 1 month 50-99 pM, baseline PICP ≧100 pM
[9] = Females, change in PICP at 1 month 100-149 pM, baseline PICP <100 pM
[10] = Females, change in PICP at 1 month 100-149 pM, baseline PICP ≧100 pM
[11] = Females, change in PICP at 1 month <50 pM, baseline PICP <100 pM
[12] = Females, change in PICP at 1 month <50 pM, baseline PICP ≧100 pM
[13] = Females, change in PICP at 1 month ≧150 pM, baseline PICP ≧100 pM
[14] = Male Patients, BSAP at 3 Months 10-14.99 pM
[15] = Male Patients, BSAP at 3 Months 15-19.99 pM
[16] = Male Patients, BSAP at 3 Months <10 pM
[17] = Male Patients, BSAP at 3 Months ≧20 pM
[18] = Males, change in PICP at 1 month 50-99 pM, baseline PICP <100 pM
[19] = Males, change in PICP at 1 month 50-99 pM, baseline PICP ≧100 pM
[20] = Males, change in PICP at 1 month 100-149 pM, baseline PICP <100 pM
[21] = Males, change in PICP at 1 month 100-149 pM, baseline PICP ≧100 pM
[22] = Males, change in PICP at 1 month <50 pM, baseline PICP <100 pM
[23] = Males, change in PICP at 1 month <50 pM, baseline PICP ≧100 pM
[24] = Males, change in PICP at 1 month ≧150 pM, baseline PICP <100 pM
[25] = Males, change in PICP at 1 month ≧150 pM, baseline PICP ≧100 pM
[26] = all patients with baseline PICP >100 pM and increase in PICP >100 pM, 12 months
[27] = male patients with baseline PICP >100 pM and increase in PICP >100 pM
[28] = postmenopausal women with baseline PICP >100 pM and increase in PICP >100 pM
[29] = about 5-6 weeks following termination, about 21-24 months after initiation

CC[C@H](C)[C@H](NC(=O)[C@H](CCC(=O)O)NC(=O)[C@H](CO)NC(=O)[C@@H](NC(=O)[C@@H](N)CO)C(C)C)C(=O)N[C@@H](CCC(N)=O)C(=O)N[C@@H](CC(C)C)C(=O)N[C@@H](CCSC)C(=O)N[C@@H](Cc1cnc[nH]1)C(=O)N[C@@H](CC(N)=O)C(=O)N[C@@H](CC(C)C)C(=O)NCC(=O)N[C@@H](CCCCN)C(=O)N[C@@H](Cc1cnc[nH]1)C(=O)N[C@@H](CC(C)C)C(=O)N[C@@H](CC(N)=O)C(=O)N[C@@H](CO)C(=O)N[C@@H](CCSC)C(=O)N[C@@H](CCC(=O)O)C(=O)N[C@@H](CCCN=C(N)N)C(=O)N[C@H](C(=O)N[C@@H](CCC(=O)O)C(=O)N[C@@H](Cc1c[nH]c2ccccc12)C(=O)N[C@@H](CC(C)C)C(=O)N[C@@H](CCCN=C(N)N)C(=O)N[C@@H](CCCCN)C(=O)N[C@@H](CCCCN)C(=O)N[C@@H](CC(C)C)C(=O)N[C@@H](CCC(N)=O)C(=O)N[C@@H](CC(=O)O)C(=O)N[C@H](C(=O)N[C@@H](Cc1cnc[nH]1)C(=O)N[C@@H](CC(N)=O)C(=O)N[C@@H](Cc1ccccc1)C(=O)O)C(C)C)C(C)C [LY333334]
% Change in Spine BMD at 12 Months, 5th-95th Percentiles [1, 3]: 1.5-18.9%
% Change in Spine BMD at 12 Months, Mean [1, 3]: 9.4%
% Change in Spine BMD at 12 Months, 5th-95th Percentiles [1, 4]: 3.4-24.7%
% Change in Spine BMD at 12 Months, Mean [1, 4]: 12.2%
% Change in Spine BMD at 12 Months, 5th-95th Percentiles [1, 5]: 0.5-15.3%
% Change in Spine BMD at 12 Months, Mean [1, 5]: 7.2%
% Change in Spine BMD at 12 Months, 5th-95th Percentiles [1, 6]: 4.6-20.9%
% Change in Spine BMD at 12 Months, Mean [1, 6]: 12.9%
% Change in Spine BMD at 12 Months, 5th-95th Percentiles [1, 7]: 2.2-19.0%
% Change in Spine BMD at 12 Months, Mean [1, 7]: 9.5%
% Change in Spine BMD at 12 Months, 5th-95th Percentiles [1, 8]: 3.6-18.8%
% Change in Spine BMD at 12 Months, Mean [1, 8]: 10.4%
% Change in Spine BMD at 12 Months, 5th-95th Percentiles [1, 9]: 2.9-16.1%
% Change in Spine BMD at 12 Months, Mean [1, 9]: 10.4%
% Change in Spine BMD at 12 Months, 5th-95th Percentiles [1, 10]: 6.9-19.7%
% Change in Spine BMD at 12 Months, Mean [1, 10]: 12.6%
% Change in Spine BMD at 12 Months, 5th-95th Percentiles [1, 11]: −0.7-12.4%
% Change in Spine BMD at 12 Months, Mean [1, 11]: 5.7%
% Change in Spine BMD at 12 Months, 5th-95th Percentiles [1, 12]: 2.9-17.3%
% Change in Spine BMD at 12 Months, Mean [1, 12]: 9.0%
% Change in Spine BMD at 12 Months, Mean ([1]; Females, change in PICP at 1 month ≧150 pM, baseline PICP <100 pM): 13.7%
% Change in Spine BMD at 12 Months, 5th-95th Percentiles [1, 13]: 11.9-31.1%
% Change in Spine BMD at 12 Months, Mean [1, 13]: 18.5%
% Change in Spine BMD at 12 Months, 5th-95th Percentiles [1, 14]: 1.9-14.9%
% Change in Spine BMD at 12 Months, Mean [1, 14]: 7.9%
% Change in Spine BMD at 12 Months, 5th-95th Percentiles [1, 15]: 3.0-15.0%
% Change in Spine BMD at 12 Months, Mean [1, 15]: 8.3%
% Change in Spine BMD at 12 Months, 5th-95th Percentiles [1, 16]: 1.6-13.0%
% Change in Spine BMD at 12 Months, Mean [1, 16]: 7.1%
% Change in Spine BMD at 12 Months, 5th-95th Percentiles [1, 17]: 1.6-19.6%
% Change in Spine BMD at 12 Months, Mean [1, 17]: 10.0%
% Change in Spine BMD at 12 Months, 5th-95th Percentiles [1, 18]: 4.6-18.1%
% Change in Spine BMD at 12 Months, Mean [1, 18]: 9.4%
% Change in Spine BMD at 12 Months, 5th-95th Percentiles [1, 19]: 3.6-15.8%
% Change in Spine BMD at 12 Months, Mean [1, 19]: 8.7%
% Change in Spine BMD at 12 Months, 5th-95th Percentiles [1, 20]: 7.2-14.0%
% Change in Spine BMD at 12 Months, Mean [1, 20]: 11.1%
% Change in Spine BMD at 12 Months, 5th-95th Percentiles [1, 21]: 4.6-18.6%
% Change in Spine BMD at 12 Months, Mean [1, 21]: 11.3%
% Change in Spine BMD at 12 Months, 5th-95th Percentiles [1, 22]: 1.2-11.7%
% Change in Spine BMD at 12 Months, Mean [1, 22]: 4.8%
% Change in Spine BMD at 12 Months, 5th-95th Percentiles [1, 23]: 1.5-11.7%
% Change in Spine BMD at 12 Months, Mean [1, 23]: 6.9%
% Change in Spine BMD at 12 Months, 5th-95th Percentiles [1, 24]: 2.7-20.8%
% Change in Spine BMD at 12 Months, Mean [1, 24]: 10.7%
% Change in Spine BMD at 12 Months, 5th-95th Percentiles [1, 25]: 6.0-18.0%
% Change in Spine BMD at 12 Months, Mean [1, 25]: 10.2%
mean increase in total lumbar spine BMD [1, 26]: 13.6%
minimum increase in total lumbar spine BMD [1, 26]: ≥ 4.3%
mean increase in total lumbar spine BMD [1, 27]: 10.8%
minimum increase in total lumbar spine BMD [1, 27]: ≥ 4.3%
mean increase in total lumbar spine BMD ([1]; men who did not meet the PICP criteria): 7.4%
mean increase in total lumbar spine BMD ([1]; patients who did not meet the PICP criteria, 12 months): 8.2%
mean increase in total lumbar spine BMD [1, 28]: 16.0%
minimum increase in total lumbar spine BMD [1, 28]: ≥ 5.9%
mean increase in total lumbar spine BMD ([1]; women who did not meet the PICP criteria): 8.8%
percent change in PICP serum levels during treatment ([2]; 20 μg/day and 40 μg/day PTH, FIG. 2): reached a peak within about one or two months
percent change in NTX urine levels during treatment ([2]; 20 μg/day and 40 μg/day PTH, FIG. 3): increased steadily until about 12 months after treatment initiation
BSAP level after termination of PTH treatment [2, 29]: returned to a level at or slightly higher than placebo control levels
PICP level after termination of PTH treatment [2, 29]: returned to a level about the same as placebo controls
percent change in NTX levels after termination of PTH treatment ([2]; about 21-24 months after initiation): declined and returned to levels similar to those observed in the placebo treated group
